Laboratory results taken from US12560591B2, “Methods of treatment with CD8 T cell-mediated immune therapy” (Providence Health & Services—Oregon, priority 2019, dated 2026).

System: peripheral blood CXCR3^+CD45^+CD3^+CD4^− T cells
Experiment: Clinical trial NCT02688712: peripheral blood CXCR3 flow cytometry, baseline vs day 15
Assay type: in vivo, human
Conditions: rectal cancer patients, after two weeks of LY2157299, majority of patients, FIG. 12C
Description: FIGS. 12A-12E are a series of panels showing TGFβ-mediated suppression of CXCR3-dependent CD8^+ T cell chemotaxis is relieved by LY2157299 in human patients with rectal cancer. […] FIG. 12B illustrates the clinical trial schema for a phase II clinical trial of rectal cancer patients and sample collection intervals. Patients receive two cycles of LY2157299 on days 1-14 and again on days 30-43 while receiving standard of care chemoradiation on days 15-57 prior to surgery. […] Patients are grouped by nodal status following neoadjuvant treatment (ypN). On the right, percent change in frequency of CXCR3^+CD3^+CD4^− T cells between days 1 and 15 is shown versus the neoadjuvant rectal (NAR) score. […] Each patient is shown (thin gray lines) along with the mean of all patients (thick black line). […] Error bars in each subpanel are standard deviations.
Clinical trial analysis: Patients enrolled in clinical trial NCT02688712 provided consent prior to tissue collection as designed and approved in PHS IRB #15-050. […] Pathological assessment for neoadjuvant treatment response was evaluated in the surgical resection specimen including excised lymph nodes. Neoadjuvant rectal (NAR) score was calculated by the published, validated formula (George et al, Curr. Colorectal Cancer Rep. 11: 275-280): [5*ypN−3(cT−ypT)+12]^2/9.61. […]

Cc1cccc(-c2nn3c(c2-c2ccnc4ccc(C(N)=O)cc24)CCC3)n1 [LY2157299]
peripheral blood CXCR3 expression, change day 0 to day 15: decrease in peripheral blood CXCR3 expression
